18 molecules from patent US20260138976A1 (Hoffmann-La Roche Inc., priority 2022, published 2026) can be followed below.

In assay [1] the target is T1, DGKα (hDGKalpha(1-735)-N-His) (Homo sapiens, UniProt P23743).
T1 construct: hDGKalpha(1-735)-N-His; His (N); made in house; host or cells: Sf21 insect cells (baculovirus)
Nature of the assay: In vitro DGK inhibition assay, DGKalpha ADP Glo (in house). Format: biochemical. The note with it: 4 nM DGKα, 25 μM ATP, 125 uM DLG in liposomes, 1 hour reaction. On the procedure:
DGKα and ζ kinases use ATP to phosphorylate the substrate 1,2-dilauroyl-sn-glycerol (DLG, incorporated in the liposomes). ATP is converted to ADP as a result of this enzymatic reaction. After the kinase reaction, an ATP-depletion reagent is added to terminate the kinase reaction and deplete any remaining ATP, leaving only ADP. Second, a detection reagent is added to simultaneously convert ADP to ATP and allow the newly synthesized ATP to be converted to light using a coupled luciferase/luciferin reaction.
Full length DGKα and ζ were expressed in Sf21 insect cells by infecting the cells with the baculovirus stock at MOI of 2. Purification of both enzymes was performed as previously described by Takahashi et al., PeerJ, 2018 (Takahashi, D.; Sakane, F. Expression and purification of human diacylglycerol 5 kinase alpha from baculovirus-infected insect cells for structural studies. PeerJ2018, 6, No. e5449).
A concentrated liposome solution was prepared in assay buffer without DTT and BSA: 2 mM of DLG in 21 mM of total liposome (2 mM DLG/8 mM PS/11 mM PC). The reaction mixtures contain the assay buffer with a final DLG concentration of 125 uM ATP concentrations of 25 μM (for DGKA assay) or 50 μM (for DGKZ assay). The reactions were started by addition of DGK α and ζ kinases at 4 nM and 2 nM final concentrations, respectively. After 1 hour reaction, the amount of ADP formed was detected with the ADP-Glo kinase assay (Promega) according to the manufacturer instructions. Compounds were added in 11-points dose response, starting at […], 1:3 dilutions, with a final DMSO concentration of 2%. The multidrop combi was used as a liquid handler and luminescence was read with 0.5 s by the envision reader (PE).
In general terms: In ADP-Glo the light output rises with the ADP produced.

The target in assay [2] is T2, DGKζ (hDGKzeta(1-928)-N-His) (Homo sapiens, UniProt Q13574).
T2 construct: hDGKzeta(1-928)-N-His; His (N); made in house; host or cells: Sf21 insect cells (baculovirus)
The assay can be described thus: In vitro DGK inhibition assay, DGKzeta ADP Glo (in house). Format: biochemical. Conditions: 2 nM DGKζ, 50 μM ATP, 125 uM DLG in liposomes, 1 hour reaction. Put shortly: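 Full-length His-tagged human DGKα (4 nM) or DGKζ (2 nM), expressed in Sf21 cells, phosphorylated 125 µM DLG in PS/PC liposomes with ATP at 25 µM (α) or 50 µM (ζ) for 1 h. ADP was measured by ADP-Glo luminescence. Compounds were tested as 11-point 1:3 series in 2% DMSO.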

Each structure is given as a SMILES string.

T1 sequence (P23743 whole entry): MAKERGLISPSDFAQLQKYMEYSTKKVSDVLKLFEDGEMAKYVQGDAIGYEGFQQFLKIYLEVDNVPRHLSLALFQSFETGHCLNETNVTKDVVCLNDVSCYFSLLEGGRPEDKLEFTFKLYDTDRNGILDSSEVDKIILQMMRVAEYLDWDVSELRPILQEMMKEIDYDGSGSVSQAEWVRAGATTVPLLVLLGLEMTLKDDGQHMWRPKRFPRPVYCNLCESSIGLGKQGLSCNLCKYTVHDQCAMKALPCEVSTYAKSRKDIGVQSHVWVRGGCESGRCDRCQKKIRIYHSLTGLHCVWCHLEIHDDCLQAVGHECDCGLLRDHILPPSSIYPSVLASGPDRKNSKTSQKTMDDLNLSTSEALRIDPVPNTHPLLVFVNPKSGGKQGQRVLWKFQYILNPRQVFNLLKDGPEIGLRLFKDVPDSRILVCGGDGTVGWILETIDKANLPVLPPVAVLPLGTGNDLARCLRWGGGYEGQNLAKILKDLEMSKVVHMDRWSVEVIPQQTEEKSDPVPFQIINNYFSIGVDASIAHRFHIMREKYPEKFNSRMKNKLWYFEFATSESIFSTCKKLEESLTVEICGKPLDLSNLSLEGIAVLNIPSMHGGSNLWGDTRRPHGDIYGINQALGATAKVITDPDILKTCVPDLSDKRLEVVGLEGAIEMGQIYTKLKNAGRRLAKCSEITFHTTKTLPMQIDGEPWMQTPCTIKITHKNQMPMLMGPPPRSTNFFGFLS
T2 sequence (Q13574 whole entry): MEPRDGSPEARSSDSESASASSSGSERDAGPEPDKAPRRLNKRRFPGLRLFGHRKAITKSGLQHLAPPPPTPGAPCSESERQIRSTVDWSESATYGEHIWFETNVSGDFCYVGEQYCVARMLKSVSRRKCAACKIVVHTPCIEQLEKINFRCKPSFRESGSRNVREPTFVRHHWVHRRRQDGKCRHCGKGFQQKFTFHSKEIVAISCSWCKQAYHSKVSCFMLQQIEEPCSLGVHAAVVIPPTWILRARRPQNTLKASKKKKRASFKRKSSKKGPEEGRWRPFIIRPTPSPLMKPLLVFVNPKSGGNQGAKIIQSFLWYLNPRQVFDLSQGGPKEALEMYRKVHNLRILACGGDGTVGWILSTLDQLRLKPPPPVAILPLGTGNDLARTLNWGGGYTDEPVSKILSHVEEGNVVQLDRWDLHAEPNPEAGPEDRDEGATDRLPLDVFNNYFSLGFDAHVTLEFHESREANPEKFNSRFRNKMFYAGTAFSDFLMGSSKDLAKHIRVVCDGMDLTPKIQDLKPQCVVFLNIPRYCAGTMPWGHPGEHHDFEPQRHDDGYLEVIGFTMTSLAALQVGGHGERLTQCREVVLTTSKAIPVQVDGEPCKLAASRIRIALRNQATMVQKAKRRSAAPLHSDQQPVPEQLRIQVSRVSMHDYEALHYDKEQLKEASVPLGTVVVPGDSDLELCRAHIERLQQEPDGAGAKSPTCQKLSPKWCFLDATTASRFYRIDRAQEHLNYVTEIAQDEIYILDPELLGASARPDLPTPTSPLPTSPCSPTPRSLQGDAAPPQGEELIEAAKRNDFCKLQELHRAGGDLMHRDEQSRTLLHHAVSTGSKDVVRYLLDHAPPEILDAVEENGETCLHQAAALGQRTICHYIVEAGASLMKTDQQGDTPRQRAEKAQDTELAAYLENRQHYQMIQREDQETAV

Broadly, the IC50 is the concentration that inhibits the measured activity by half. As to `N[C@H]1CS(=O)(=O)c2cc(F)c(-c3noc(N4CCOC(F)(F)C4)n3)cc2N(Cc2ccc(-c3ccc(C(F)(F)F)cc3)nc2)C1=O` [Example 13, (3R)-3-amino-7-[5-(2,2-difluoromorpholin-4-yl)-1,2,4-oxadiazol-3-yl]-8-fluoro-1,1-dioxo-5-[[6-[4-(trifluoromethyl)phenyl]-3-pyridyl]methyl]-2,3-dihydro-1λ^6,5-benzothiazepin-4-one], the IC50 is above 62500 nM in assay [1] and 769 nM in assay [2].

On to `N[C@H]1CS(=O)(=O)c2ccc(-c3nnc(C4(C(F)F)CNC4)o3)cc2N(Cc2ccc(-c3ccc(C(F)(F)F)cc3)cc2)C1=O` [Example 152], for which the IC50 in assay [1] was above 60000 nM; in assay [2], 12200 nM.

As to `N[C@H]1CS(=O)(=O)c2cc(F)c(-c3noc(C4(N)COC4)n3)cc2N(Cc2ccc(-c3noc(C(F)(F)F)n3)cc2)C1=O` [Example 9, (3R)-3-amino-7-[5-(3-aminooxetan-3-yl)-1,2,4-oxadiazol-3-yl]-8-fluoro-1,1-dioxo-5-[[4-[5-(trifluoromethyl)-1,2,4-oxadiazol-3-yl]phenyl]methyl]-2,3-dihydro-1λ^6,5-benzothiazepin-4-one], the IC50 turned out to be 3290 nM in assay [1] and 468 nM in assay [2].

In the case of `CC(C)(C#N)c1nnc(-c2ccc3c(c2)N(Cc2ccc(-c4nc(C(F)(F)F)co4)cc2)C(=O)[C@@H](N)CS3(=O)=O)o1` [Example 123, 2-[5-[(3R)-3-amino-1,1,4-trioxo-5-[[4-[4-(trifluoromethyl)oxazol-2-yl]phenyl]methyl]-2,3-dihydro-1λ^6,5-benzothiazepin-7-yl]-1,3,4-oxadiazol-2-yl]-2-methyl-propanenitrile], the IC50 turned out to be 1860 nM in assay [1] and 893 nM in assay [2].

Consider `N#CC1(c2nnc(-c3ccc4c(c3)N(Cc3ccc(-c5ccc(OC(F)(F)F)cn5)cc3)C(=O)[C@@H](N)CS4(=O)=O)o2)CCC1` [Example 172, 1-[5-[(3R)-3-amino-1,1,4-trioxo-5-[[4-[5-(trifluoromethoxy)-2-pyridyl]phenyl]methyl]-2,3-dihydro-1λ^6,5-benzothiazepin-7-yl]-1,3,4-oxadiazol-2-yl]cyclobutanecarbonitrile], for which the IC50 in assay [1] worked out at 2520 nM; in assay [2], 732 nM.

Regarding `C[C@@](N)(c1nnc(-c2ccc3c(c2)N(Cc2ccc(-c4ccc(C(F)(F)F)cn4)cc2)C(=O)[C@@H](N)CS3(=O)=O)o1)C(F)(F)F` [Example 154, (3R)-3-amino-7-[5-[(1R)-1-amino-2,2,2-trifluoro-1-methyl-ethyl]-1,3,4-oxadiazol-2-yl]-1,1-dioxo-5-[[4-[5-(trifluoromethyl)-2-pyridyl]phenyl]methyl]-2,3-dihydro-1λ^6,5-benzothiazepin-4-one], the values for the IC50 in assay [1] and in assay [2] were 23600 nM and 3100 nM, respectively.

As for `CC(C)(C#N)c1nnc(-c2ccc3c(c2)N(Cc2ccc(-c4noc(C(F)(F)F)n4)cc2)C(=O)[C@@H](N)CS3(=O)=O)o1` [Example 38, 2-[5-[(3R)-3-amino-1,1,4-trioxo-5-[[4-[5-(trifluoromethyl)-1,2,4-oxadiazol-3-yl]phenyl]methyl]-2,3-dihydro-1λ^6,5-benzothiazepin-7-yl]-1,3,4-oxadiazol-2-yl]-2-methyl-propanenitrile], the figures for the IC50 in assay [1] and in assay [2] were 9770 nM and 1140 nM, respectively.

Regarding `N[C@H]1CS(=O)(=O)c2ccc(-c3nnc(N4CCC(F)(F)CC4)o3)cc2N(Cc2ccc(-c3noc(C(F)(F)F)n3)cc2)C1=O` [Example 68, (3R)-3-amino-7-[5-(4,4-difluoro-1-piperidyl)-1,3,4-oxadiazol-2-yl]-1,1-dioxo-5-[[4-[5-(trifluoromethyl)-1,2,4-oxadiazol-3-yl]phenyl]methyl]-2,3-dihydro-1λ^6,5-benzothiazepin-4-one], the IC50 turned out to be 2640 nM in assay [1] and 625 nM in assay [2].

In the case of `COC(=O)N1CC2CC(c3nnc(-c4ccc5c(c4)N(Cc4ccc(-c6noc(C(F)(F)F)n6)cc4)C(=O)[C@@H](N)CS5(=O)=O)o3)(C2)C1` [Example 158, methyl 1-[5-[(3R)-3-amino-1,1,4-trioxo-5-[[4-[5-(trifluoromethyl)-1,2,4-oxadiazol-3-yl]phenyl]methyl]-2,3-dihydro-1λ^6,5-benzothiazepin-7-yl]-1,3,4-oxadiazol-2-yl]-3-azabicyclo[3.1.1]heptane-3-carboxylate], the IC50 is above 60000 nM in assay [1] and 1130 nM in assay [2].

As for `Cc1nc(-c2ccc(CN3C(=O)[C@@H](N)CS(=O)(=O)c4ccc(-c5nnc(C(C)(C)C#N)o5)cc43)cc2)ccc1C(F)(F)F` [Example 114], the IC50 in assay [1] was above 60000 nM; in assay [2] it was 3720 nM.

On to `CC(C)(C#N)c1nnc(-c2ccc3c(c2)N(Cc2ccc(-c4cc(OC(F)F)ccn4)cc2)C(=O)[C@@H](N)CS3(=O)=O)o1` [Example 110, 2-[5-[(3R)-3-amino-5-[[4-[4-(difluoromethoxy)-2-pyridyl]phenyl]methyl]-1,1,4-trioxo-2,3-dihydro-1λ^6,5-benzothiazepin-7-yl]-1,3,4-oxadiazol-2-yl]-2-methyl-propanenitrile], for which the IC50 was above 60000 nM in assay [1] and 507 nM in assay [2].

As for `Cn1nc(C(F)(F)F)cc1-c1ccc(CN2C(=O)[C@@H](N)CS(=O)(=O)c3ccc(-c4nnc(C(C)(C)C#N)o4)cc32)cc1` [Example 107, 2-[5-[(3R)-3-amino-5-[[4-[2-methyl-5-(trifluoromethyl)pyrazol-3-yl]phenyl]methyl]-1,1,4-trioxo-2,3-dihydro-1λ^6,5-benzothiazepin-7-yl]-1,3,4-oxadiazol-2-yl]-2-methyl-propanenitrile], the IC50 in assay [1] is 1300 nM; in assay [2] it was 843 nM.

As to `COc1ccc(-c2ccc(CN3C(=O)[C@@H](N)CS(=O)(=O)c4ccc(-c5nnc(C6(N)CCCCC6)o5)cc43)cc2)cc1` [Example 43, (3R)-3-amino-7-[5-(1-aminocyclohexyl)-1,3,4-oxadiazol-2-yl]-5-[[4-(4-methoxyphenyl)phenyl]methyl]-1,1-dioxo-2,3-dihydro-1λ^6,5-benzothiazepin-4-one], the concentration for half-maximal inhibition (IC50) was found to be 17100 nM in assay [1] and 1090 nM in assay [2].

On to `CC(C)(C#N)c1nnc(-c2ccc3c(c2)N(Cc2ccc(-n4nnc(C(F)(F)F)n4)cc2)C(=O)[C@@H](N)CS3(=O)=O)o1` [Example 120, 2-[5-[(3R)-3-amino-1,1,4-trioxo-5-[[4-[5-(trifluoromethyl)tetrazol-2-yl]phenyl]methyl]-2,3-dihydro-1λ^6,5-benzothiazepin-7-yl]-1,3,4-oxadiazol-2-yl]-2-methyl-propanenitrile], for which the IC50 in assay [1] was 13500 nM; in assay [2] it was 2020 nM.

For the molecule `CCOC(F)(c1nnc(-c2ccc3c(c2)N(Cc2ccc(-c4noc(C(F)(F)F)n4)cc2)C(=O)[C@@H](N)CS3(=O)=O)o1)C(F)(F)F` (stereo partly drawn) [Example 64, (3R)-3-amino-7-[5-(1-ethoxy-1,2,2,2-tetrafluoro-ethyl)-1,3,4-oxadiazol-2-yl]-1,1-dioxo-5-[[4-[5-(trifluoromethyl)-1,2,4-oxadiazol-3-yl]phenyl]methyl]-2,3-dihydro-1λ^6,5-benzothiazepin-4-one], the IC50 in assay [1] worked out at 1960 nM; in assay [2] it was 2790 nM.

For the molecule `CC(C)(CC#N)c1nnc(-c2ccc3c(c2)N(Cc2ccc(-c4ccc(OC(F)(F)F)cn4)cc2)C(=O)[C@@H](N)CS3(=O)=O)o1` [Example 175, 3-[5-[(3R)-3-amino-1,1,4-trioxo-5-[[4-[5-(trifluoromethoxy)-2-pyridyl]phenyl]methyl]-2,3-dihydro-1λ^6,5-benzothiazepin-7-yl]-1,3,4-oxadiazol-2-yl]-3-methyl-butanenitrile], the IC50 came out at 961 nM in assay [1] and 734 nM in assay [2].

With `CC(C)(C#N)c1nnc(-c2ccc3c(c2)N(Cc2ccc(-c4ccc(C(F)(F)F)cc4)nc2)C(=O)[C@@H](N)CS3(=O)=O)o1` [Example 106], the IC50 stood at 14400 nM in assay [1] and 2370 nM in assay [2].

As for `N[C@H]1CS(=O)(=O)c2cc(F)c(-c3nnc(N4CCOC5(CC5)C4)o3)cc2N(Cc2ccc(-c3noc(C(F)(F)F)n3)cc2)C1=O` [Example 4, (3R)-3-amino-8-fluoro-7-[5-(4-oxa-7-azaspiro[2.5]octan-7-yl)-1,3,4-oxadiazol-2-yl]-1,1-dioxo-5-[[4-[5-(trifluoromethyl)-1,2,4-oxadiazol-3-yl]phenyl]methyl]-2,3-dihydro-1λ^6,5-benzothiazepin-4-one], the results for the IC50 in assay [1] and in assay [2] were 3410 nM and 127 nM, respectively.
